Laboratory results published in patent US20250280843A1, “METHOD FOR INHIBITING POTATOES FROM GREENING AND USE THEREOF” (priority 2024, published 2025).
Read-outs that look alike come from different tables or passages of the source.

How the values were obtained:
[1] = test system: chlorophyll degradation-related genes; test: Gene expression by real-time PCR: chlorophyll degradation genes; set-up: species or system potato; settings: during the greening period; vs control
Experimental: Chlorophyll degradation-related genes included StSGR, StNYC1, StTIC, and StPAO.
(§1) Total RNA was extracted from frozen potato skins and transformed into cDNA. The expression levels of the aforementioned genes were determined by a Bio-Rad CFX 96 Real-Time PCR System (BIO-RAD, Hercules, CA, USA) and a SYBR Green I Master Mix (Vazyme, Nanjing, Jiangsu, China). Thermocycling conditions included an initial denaturation step at 95° C. for 30 s, followed by 39 cycles of 95° C. for 15 s, then 55° C. for 30 s, and 72° C. for 20 s. Three biological replicates were used, and each replicate was measured for three times. StEF-1a was used as a reference gene for potatoes. Gene expression was calculated by using a 2-ΔCt method.

[2] = test system: chlorophyll synthesis-related genes; test: Gene expression by real-time PCR: chlorophyll synthesis genes; set-up: species or system potato; settings: during the greening period; vs control
Experimental: Chlorophyll synthesis-related genes included StHEMA, StGSA, StPBGD, StCPO, StPPO, StCHLD, StCHLI, StCHLH, STCHLHM, StCRD1, StPOR1, StPOR2, StCHLG, and StCHLP.
as §1

potato tubers [3] = test: Determination of ethylene release amount; type: in vivo, potato ("V7"); settings: illumination group, entire storage period 12 d; vs control
Experimental: (§2) “V7” potatoes were used as experimental materials. They were collected from Dongyu Vegetable Market in Ningbo City, Zhejiang Province. They were freshly picked and transported to the laboratory at room temperature. They were cleaned, and tubers of uniform sizes and free of diseases and insect pests and free of mechanical damages were selected as experimental samples. The samples were divided into two groups, immersed in distilled water for 10 min and then naturally air-dried after the immersion treatment was ended.
(§3) One group served as a control group (CK) without any subsequent treatment, and contained 50 potatoes. For another group, a carton was provided, in which 50 potatoes were placed. The carton was placed in a controlled atmosphere storage box with a volume of 1,000 L at a temperature controlled at 25° C. and the humidity maintained at 60%. The gas composition in the controlled atmosphere storage box was maintained the same as that of the atmosphere. A space was reserved in the controlled atmosphere storage box. 10 mg of 1-MCP dry powder was weighed into a glass weighing bottle. […]
4 potato tubers were randomly selected and placed in a sealed container (illumination group). They were placed at respective storage temperatures for 3 h, and then 5 mL of gas was extracted and determined for ethylene content using a Shimadzu type 2014C gas chromatograph (Shimadzu, Japan). […]

[4] = test system: solanine synthesis-related genes; test: Gene expression by real-time PCR: solanine synthesis genes; set-up: species or system potato; settings: during the greening period; vs control
Experimental: Genes related to inhibition of solanine synthesis included StHMGR, StPSS1, StSQE1, StCAS1, StSSR2, StSSR1, StPGA2, StPGA1, StDOX, StGAME6, StPGA3, StGAME12, StSGT1, StSGT2, and StSGT3.
as §1

potatoes = type: in vivo, potato; settings: under illumination; specific experimental data omitted
Description: Ethylene, as a plant hormone that promotes maturity and aging, can be produced by some plants themselves and exists in a certain amount in the storage environment and even in the air. Ethylene binds with a related receptor inside a cell to activate a series of physiological and biochemical reactions related to maturity, thereby accelerating aging and death. 1-MCP can also bind well with an ethylene receptor, but such binding will not cause a biochemical reaction of maturity. Therefore, before the production of endogenous ethylene in a plant or the action of exogenous ethylene, if 1-MCP is applied, it will bind with the ethylene receptor first, thereby preventing the binding of ethylene with the receptor thereof, which greatly prolongs the ripening and aging process of fruits and vegetables and extends the length for preservation. There are many reagents that bind with the ethylene receptor to control the production of ethylene, e.g. aminooxyacetic acid (AOA), salicylic acid (SA), 2,5-norbornadiene (2,5-NBD), silver thiosulfate (STS), and aminooxyvinylglycine (AVG). These reagents are all ethylene inhibitors.

[5] = cited from earlier work
potato tubers [6] = test: Determination of chlorophyll content; type: in vivo, potato ("V7"); settings: illumination group, during storage 12 d; vs control
Experimental: as §2
as §3, with “atmosphere.” for “atmosphere. A space was reserved in the controlled atmosphere storage box. 10 mg of 1-MCP dry powder was weighed into a glass weighing bottle.”
0.2 g of a potato frozen sample (the sample of the illumination group) was taken, grounded into a homogenate with 1.5 mL of 95% (v/v) ethanol in an ice bath, and then centrifuged at a rotational speed of 10.000 r/min for 10 min. The precipitate was discarded, the supernatant was taken, and 95% ethanol was used as a blank group, to determine the absorbance values at 649 nm and 665 nm, respectively. […]

potato tubers [7] = test: Determination of solanine content (LC-MS); type: in vivo, potato ("V7"); settings: vs control
Experimental: as §2
One group served as a control group (CK) without any subsequent treatment, and contained 50 potatoes. For another group, a carton was provided, in which 50 potatoes were placed. The carton was placed in a controlled atmosphere storage box with a volume of 1,000 L at a temperature controlled at 25° C. and the humidity maintained at 60%. The gas composition in the controlled atmosphere storage box was maintained the same as that of the atmosphere. A space was reserved in the controlled atmosphere storage box. 10 mg of 1-MCP dry powder was weighed into a glass weighing bottle. The weighing bottle containing 1-mcp was placed in the controlled atmosphere storage box, and added with 2 ml of a 1M NaOH solution to release 1-mcp gas from the weighing bottle. The weight of the gas was 10 mg. The potatoes were placed in the gas environment, fumigated for 16 h, taken out and then air-dried for 1 h. The meaning of “fumigation” here was to put the potatoes in a gas environment of 10 mg 1-mcp in a 1,000 L controlled atmosphere storage box, which was equivalent to a concentration of 0.01 milligrams of the 1-mcp gas per liter of gas. […]
Solanine was mainly composed of solanine and chaconine, with solanidine as aglycone. Therefore, α-solanine and α-chaconine (Sigma-Aldrich, USA) were used as chemical standards for quantification of SGA content. • 1) Liquid chromatography conditions: AgilentEclipsePlusC18 chromatographic column (100 mm×2.1 mm, 1.8 μm); the mobile phase A was 1 mmol/L of an acidified ammonium formate solution, and the mobile phase B was acetonitrile. […]

potato tubers [8] = test: Determination of greening index a* of potato tuber skin after fumigation; type: in vivo, potato ("V7"); settings: for greening index a*: fumigation 10 mg 1-MCP + NaOH 16 h; for Value of greening index a*: with NaOH
Description: The method for inhibiting potatoes from greening was: treating potato tubers with 1-MCP, and specifically, fumigating potato tubers with 1-MCP and NaOH.
as §2
(§4) One group served as a control group (CK) without any subsequent treatment, and contained 50 potatoes. For another group, a carton was provided, in which 50 potatoes were placed. The carton was placed in a controlled atmosphere storage box with a volume of 1,000 L at a temperature controlled at 25° C. and the humidity maintained at 60%. The gas composition in the controlled atmosphere storage box was maintained the same as that of the atmosphere. A space was reserved in the controlled atmosphere storage box. 10 mg of 1-MCP dry powder was weighed into a glass weighing bottle. The weighing bottle containing 1-mcp was placed in the controlled atmosphere storage box, and added with 2 ml of a 1M NaOH solution to release 1-mcp gas from the weighing bottle. The weight of the gas was 10 mg. The potatoes were placed in the gas environment, fumigated for 16 h, taken out and then air-dried for 1 h. The meaning of “fumigation” here was to put the potatoes in a gas environment of 10 mg 1-mcp in a 1,000 L controlled atmosphere storage box, which was equivalent to a concentration of 0.01 milligrams of the 1-mcp gas per liter of gas.
Subsequently, the potatoes of the control group (2 groups) and the treatment group (2 groups) were bagged (two groups). The two groups were stored in a constant temperature and humidity chamber at 25±1° C. and relative humidity of 60% for 12 d. One of the groups was an illumination group with an illumination intensity of 10,000 LUX, and the other one was a group with protection from light having an illumination intensity of 0 LUX (in the dark). The tuber skin of the potatoes was taken every 3 d and photographed. The skin was then frozen in liquid nitrogen, and stored at −80° C. for subsequent analysis.
Potato tubers treated for corresponding days were picked out. 6 potatoes were randomly selected from each group. the skin of potato tuber was peeled off, and immediately measured for the color difference with a colorimeter (Shenzhen ThreeNH Technology Co., Ltd., model: NR60CP+), and the a* value was determined and recorded with a […] to indicate the color change of the potato skin. a* was an important parameter for measuring color and lustre. The positive or negative value indicated reddish (positive indicated reddish) or greenish (negative indicated greenish), and the magnitude of the absolute value indicated the degree of reddish or greenish. The colorimeter was calibrated with a standard white plate before determination.
Three groups of experiments were set up. One group was as described in Example 1, in which potato tubers were fumigated with 1-MCP and NaOH, serving as the control group in this experiment. The difference between an experimental group 1 and the control group was that no NaOH solution was used, but an equal volume of water was used. The difference between an experimental group 2 and the control group was that no NaOH solution was used, but an equal volume of anhydrous ethanol was used.
This example employed the method provided in Example 1, and employed 1-MCP and NaOH to fumigate potato tubers, where the dosages of 1-MCP were 1, 5, 10, 15, and 20 mg, respectively. The greening index a* value was determined by the same method as in Example 1.

StPOD42 = test: Gene expression by real-time PCR: germination-promoting gene; set-up: species or system potato; settings: during storage; vs control
Experimental: Germination-promoting genes included StPOD42 (XM_006363284.2).
as §1

potato tubers [9] = test: Long-term preservation effect under natural illumination; type: in vivo, potato ("V7"); settings: for color difference value: natural day/night, 25±1° C.
Experimental: as §4
In order to simulate natural illumination, the aforementioned control and treated potatoes were placed in an incubator (fully transparent), and placed under conditions of 25±1° C. and relative humidity of 60% in an outdoor environment. Based on the environment with natural alternation of day and night, the color difference was calculated through instruments. The change in color difference values was measured every 5 days during storage for 2, 3, and 6 months. […] In the 2nd month of storage, the color difference value of the control group was −14, while the test value of the treatment group was −2.2.

Molecule: 1-methylcyclopropene [1-MCP]
- expression amount of chlorophyll degradation genes [1]: significantly higher than those in the control group
- expression amount of chlorophyll synthesis-related genes [2]: significantly lower than those in the control group
- ethylene release amount (potato tubers [3]): always lower than that of the control group
- expression amount of solanine synthesis-related genes [4]: significantly lower than those in the control group
- effect on greening of potatoes (potatoes): significantly inhibit potatoes from greening
- solubility in solvent ([5]; 3-dichlorotoluene): 2000 µg/mL
- water solubility ([5]; 20° C.): 137 µg/mL
- solubility in solvent ([5]; acetone): 2400 µg/mL
- solubility in solvent ([5]; ethyl acetate): 12500 µg/mL
- solubility in solvent ([5]; heptane): 2500 µg/mL
- solubility in solvent ([5]; methanol): 11250 µg/mL
- solubility in solvent ([5]; xylene): 2300 µg/mL
- chlorophyll content (potato tubers [6]): increased slowly compared with the control group
- solanine content (potato tubers [7]; during storage, dark or light): increased very slowly
- α-chaconine content (potato tubers [7]; starting from the 3rd day): significantly different from those in the control group
- α-solanine content (potato tubers [7]; starting from the 3rd day): significantly different from those in the control group
- greening index a*: fumigation with NaOH compared with equal volume of water or ethanol (potato tubers [8]; Example 3, 1-MCP released with NaOH solution vs water vs anhydrous ethanol): significantly improve the effect of 1-MCP in inhibiting greening
- greening index a* (potato tubers [8]; dark (0 LUX), 6th day of storage): basically no greening
- Value of greening index a* (potato tubers [8]; dosage of 1-MCP 1 mg, storage 12 d): −3.2
- Value of greening index a* (potato tubers [8]; dosage of 1-MCP 5 mg, storage 12 d): −2.1
- Value of greening index a* (potato tubers [8]; dosage of 1-MCP 10 mg, storage 12 d): −1.2
- Value of greening index a* (potato tubers [8]; dosage of 1-MCP 15 mg, storage 12 d): −1.8
- Value of greening index a* (potato tubers [8]; dosage of 1-MCP 20 mg, storage 12 d): −2.6
- greening index a* (potato tubers [8]; illumination 10,000 LUX, 25±1° C., storage 12 d, vs control): still remained at a relatively high level
- expression of the germination-promoting gene StPOD42 (StPOD42): did not affect the expression
- appearance (green spots) (potato tubers [9]; 2nd month of storage): no obvious changes
- color difference value (potato tubers [9]; 2nd month of storage): −2.2
- germination in appearance (potato tubers [9]; 3 months of storage): a small amount of germination
- occurrence of greening (potato tubers [9]; 3 months of storage): no occurrence of greening
- color difference value (potato tubers [9]; 3 months of storage): −3.4
- germination (potato tubers [9]; 6 months of storage): a small amount of germination
- occurrence of greening (potato tubers [9]; 6 months of storage): no occurrence of greening
- solanine content (potato tubers [9]; 6 months of storage): maintained within a safe range
- color difference value (potato tubers [9]; 6 months of storage): −6.7

Molecule: NOCC(=O)O [aminooxyacetic acid]
- effect on greening of potatoes (potatoes): will not inhibit the potatoes from greening

Molecule: O=C(O)c1ccccc1O [salicylic acid]
- effect on greening of potatoes (potatoes): accelerate the greening progress

Molecule: C1=CC2C=CC1C2 [2,5-norbornadiene]
- effect on greening of potatoes (potatoes): accelerate the greening progress

Molecule: silver thiosulfate
- effect on greening of potatoes (potatoes): will not inhibit the potatoes from greening
